Data as given in ChEMBL document CHEMBL1201862, “PubChem BioAssay data set” (2004).
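Assay format: 96-well plates, 48-hour exposure. GI50: concentration for 50% inhibition of growth.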 The source made the active and inactive calls. No stated cut-off is given here; in the data, active = GI50 up to about 1.1 µM and inactive = higher.

Experiments:
Experiment in all cases: DTP human tumour cell line panel, 48 h
[1] = test system: 786-0
[2] = test system: A549
[3] = test system: HCT-116
[4] = test system: Hs-578T
[5] = test system: KM12
[6] = test system: LOX IMVI
[7] = test system: NCI-H522
[8] = test system: OVCAR-3
[9] = test system: OVCAR-8
[10] = test system: PC-3
[11] = test system: RXF 393
[12] = test system: SF-268
[13] = test system: SF-539
[14] = test system: SK-MEL-5
[15] = test system: SN12C
[16] = test system: SNB-75
[17] = test system: SR
[18] = test system: SW-620
[19] = test system: K562
[20] = test system: NCI-H460

Measured: GI50

CCCSc1ccc2[nH]c(/N=C/c3ccco3)cc2c1
inactive: [1] 40.2 µM | [2] 77.6 µM | [3] 35.4 µM | [4] 29.1 µM | [5] 49.4 µM | [6] 37.7 µM | [7] 22.2 µM | [8] 29.8 µM | [9] 31.5 µM | [10] 43.7 µM | [11] 22.3 µM | [12] 52.6 µM | [13] 12.4 µM | [14] 13.7 µM | [15] 29.9 µM | [16] > 100 µM | [17] 1.68 µM | [18] 40.2 µM

CCSSCS(C)(=O)=O
inactive: [1] 5.82 µM | [2] 36.7 µM | [3] 23.6 µM | [4] 43.5 µM | [19] 3.88 µM | [5] 61.7 µM | [6] 34.8 µM | [20] 33.5 µM | [7] 18.9 µM | [8] 26.5 µM | [9] 21.6 µM | [10] 40 µM | [11] 22.1 µM | [12] 44.5 µM | [13] 8.81 µM | [14] 32.7 µM | [15] 24.8 µM | [16] 23.3 µM | [17] 12.9 µM | [18] 5.05 µM

COc1ccc(NC(=S)N/N=C/c2c(C)n(C)n(-c3ccccc3)c2=O)cc1
inactive: [1] 24.1 µM | [3] 77.6 µM | [4] 29.9 µM | [19] 26.2 µM | [5] > 100 µM | [6] > 100 µM | [9] 20.7 µM | [10] 69.8 µM | [11] 23 µM | [12] 27.9 µM | [13] 21.3 µM | [14] > 100 µM | [16] 28 µM | [17] 78.5 µM | [18] > 100 µM

NC(=O)c1cc(N2CC2)c([N+](=O)[O-])cc1[N+](=O)[O-] [TRETAZICAR]
inactive: [1] > 100 µM | [2] > 184 µM | [3] > 100 µM | [4] > 200 µM | [19] > 100 µM | [5] > 100 µM | [6] > 100 µM | [20] 13 µM | [7] > 100 µM | [8] > 100 µM | [9] > 100 µM | [10] > 200 µM | [11] > 100 µM | [12] > 100 µM | [13] > 100 µM | [14] > 200 µM | [15] > 100 µM | [17] > 200 µM | [18] > 100 µM

Cc1ccsc1C(=S)Nc1ccc(Cl)c(/C=N/OC(C)C)c1
inactive: [1] 42.5 µM | [2] 46.6 µM | [3] 27.4 µM | [4] 45.8 µM | [5] 26.4 µM | [6] 29.8 µM | [20] 32.7 µM | [7] 28.3 µM | [8] 44.8 µM | [9] 44.3 µM | [10] 80.7 µM | [11] 20.5 µM | [12] 86.3 µM | [13] > 100 µM | [14] 25.2 µM | [15] 32.5 µM | [16] 48.2 µM | [17] 16.3 µM | [18] 34.3 µM

O=[N+]([O-])c1ccc(/N=N/c2c(O)ccc3cc(S(=O)(=O)O)cc(S(=O)(=O)O)c23)cc1
inactive: [1] > 100 µM | [2] > 100 µM | [3] > 100 µM | [4] > 100 µM | [19] > 100 µM | [5] > 100 µM | [6] > 100 µM | [7] > 100 µM | [8] > 100 µM | [9] > 100 µM | [10] > 100 µM | [11] > 100 µM | [12] > 100 µM | [14] > 100 µM | [15] > 100 µM | [16] > 100 µM | [17] > 100 µM | [18] > 100 µM

CCN1C(=S)n2cccc2C1CC(=O)c1ccc(Cl)cc1 (configuration not stated)
inactive: [1] > 100 µM | [2] 15.3 µM | [3] 33 µM | [4] > 100 µM | [19] 53.7 µM | [5] > 100 µM | [6] 58.9 µM | [20] 34.7 µM | [7] 15.5 µM | [8] 74 µM | [9] > 100 µM | [10] 40.2 µM | [11] > 100 µM | [12] 63.1 µM | [15] > 100 µM | [16] 54.7 µM | [17] 57 µM | [18] 42.9 µM

Cc1ccc(O)c(-c2cc(-c3cccc(Br)c3)on2)c1
inactive: [1] 40.4 µM | [2] 29.4 µM | [3] 20 µM | [4] 44.6 µM | [19] 29.6 µM | [5] 20.3 µM | [6] 16.3 µM | [20] 29.1 µM | [8] 19.1 µM | [9] 25.8 µM | [10] 45.6 µM | [11] 17.3 µM | [12] 24.2 µM | [13] 28.8 µM | [14] 18.1 µM | [15] 23.8 µM | [16] 12.2 µM | [17] 25.1 µM | [18] 19.8 µM

CC(NC(=O)Cc1ccc(OP(=O)(OCc2ccc([N+](=O)[O-])o2)N(C)CCCCCl)cc1)c1ccc(OCC2CCCCC2)c(C(N)=O)c1 (configuration not stated)
inactive: [1] 2.92 µM | [2] 1.87 µM | [3] 1.85 µM | [4] 1.92 µM | [19] 2.77 µM | [5] 2.4 µM | [6] 1.74 µM | [20] 2.79 µM | [7] 2.25 µM | [8] 1.66 µM | [9] 3.6 µM | [10] 2.88 µM | [11] 1.99 µM | [12] 2.22 µM | [13] 2.02 µM | [14] 1.6 µM | [15] 1.96 µM | [17] 1.48 µM | [18] 3.45 µM

COc1ccc2c(cnc3c4cc(OC)c(OC)cc4ccc23)c1
inactive: [1] > 100 µM | [2] > 100 µM | [3] > 100 µM | [4] > 100 µM | [19] > 100 µM | [5] > 100 µM | [6] > 100 µM | [20] > 100 µM | [7] > 100 µM | [8] > 100 µM | [9] > 100 µM | [10] > 100 µM | [11] > 100 µM | [12] > 100 µM | [13] > 100 µM | [14] > 100 µM | [15] > 100 µM | [17] > 100 µM | [18] > 100 µM

[N-]=[N+]=Nc1c(Cl)c(=O)n(-c2ccccc2)c2ccccc12
inactive: [1] 18.3 µM | [2] 28.4 µM | [3] 17.8 µM | [4] 25.3 µM | [19] 14.8 µM | [5] 39.5 µM | [6] 14.9 µM | [20] 34.8 µM | [8] 17.3 µM | [10] 18.7 µM | [11] 16.4 µM | [12] 19.8 µM | [13] 22.3 µM | [14] 3.15 µM | [15] 22 µM | [16] 18.5 µM | [17] 31.4 µM | [18] 14.6 µM

Oc1cc(CF)nc(S)n1
inactive: [1] > 100 µM | [2] > 100 µM | [3] > 100 µM | [4] > 100 µM | [19] > 100 µM | [5] > 100 µM | [6] > 100 µM | [20] > 100 µM | [7] > 100 µM | [8] > 100 µM | [9] > 100 µM | [10] > 100 µM | [11] > 100 µM | [12] > 100 µM | [14] > 100 µM | [15] > 100 µM | [16] > 100 µM | [17] > 100 µM | [18] > 100 µM

Oc1c(Br)cc(Br)cc1CN(Cc1cc(Br)cc(Br)c1O)C1CCCCC1
inactive: [1] 41.1 µM | [2] 30.9 µM | [3] 33.4 µM | [4] 17.2 µM | [19] 31.6 µM | [5] 31.9 µM | [6] 31.9 µM | [7] 15.3 µM | [8] 15.1 µM | [9] 31.1 µM | [10] 21.1 µM | [11] 31.3 µM | [12] 22 µM | [14] 16.9 µM | [15] 33.2 µM | [16] 24.6 µM | [17] 32.4 µM | [18] 29.7 µM

O=C(O)CCC(NC(=O)c1ccc(Nc2cnc3ccc(C(F)(F)F)cc3n2)cc1)C(=O)O (configuration not stated)
inactive: [1] > 100 µM | [2] > 100 µM | [3] > 100 µM | [4] 45.9 µM | [19] > 100 µM | [5] > 100 µM | [6] > 100 µM | [20] > 100 µM | [8] > 100 µM | [9] > 100 µM | [10] > 100 µM | [11] > 100 µM | [12] > 100 µM | [13] > 100 µM | [14] > 100 µM | [15] > 100 µM | [16] > 100 µM | [17] > 100 µM | [18] > 100 µM

COc1ccc(OC)c2sc(N3C(=O)/C(=C/c4ccccc4S)N=C3c3ccccc3)nc12
inactive: [1] 59.2 µM | [2] 42.8 µM | [3] 28.2 µM | [4] 49.7 µM | [19] 26 µM | [5] 41 µM | [6] 24.9 µM | [20] 53.8 µM | [8] 37.5 µM | [9] 47.2 µM | [10] 19.7 µM | [11] 18.8 µM | [12] 59.7 µM | [13] 28.6 µM | [14] 18.4 µM | [15] 26.9 µM | [16] 16.5 µM | [17] 14.4 µM | [18] 39.2 µM
